In US9744164B2, “Neuroprotective polyphenol analogs” (Salk Institute for Biological Studies, priority 2011, dated 2017):
Read-outs that look alike come from different tables or passages of the source.

Legend:
[1] = tested on: embolic strokes in rabbits; settings: RSCEM, as published in the manuscript; cited from earlier work
[2] = tested on: embolic strokes in rabbits; assay: rabbit small clot embolic stroke model (RSCEM); assay type: in vivo
Description: The ability of polyphenol analogs to treat, prevent and/or mitigate one or more symptoms of stroke can also be evaluated in in vivo assays. Such assays are known in the art and find use. One applicable in vivo screening assay is the rabbit clot embolic stroke model, discussed, e.g., in Lapchak, et al., Stroke (2002) 33(9):2279-84 and Lapchak, Exp Neurol. (2007) 205(2):407-13. The rabbit small clot embolic stroke model (RSCEM) and rabbit large clot embolic stroke model (RLCEM) can be used to determine the potential neuroprotective properties and safety profile of test polyphenol analogs after an embolic stroke. Rabbits are embolized by injecting small blood clots (RSCEM) or large blood clots (RLCEM) into the cerebral circulation. Behavioral analysis is conducted 24 hours later, allowing for determination of the effective stroke dose (ES50) or clot amount (milligrams) that produces severe neurological deficits in 50% of rabbits. A drug is considered neuroprotective if it increases the ES50 compared with the vehicle-treated control group.
Either vehicle or bolus injections of chlorogenic acid were administered intravenously over 1 minute starting 5 minutes following embolization using a suspension of small-sized blood clots. In this series of studies, CGA was administered at 50 mg/kg. Behavioral analysis was conducted at 24 hours following treatment, which allowed for the construction of quantal dose-response analysis curves. […] For the superimposed graphs, normal animals are plotted on the y-axis at 0% and abnormal animals are plotted at 100%. […] Moreover, CGA increased the P50 value (the clot dose that produces abnormality in 50% of a treatment group) compared to vehicle control. For a detailed discussion of the methods used to fit the quantal data to a sigmoidal curve, see Zivin and Waud. The pharmacology of chlorogenic acid in the rabbit small clot embolic stroke model (RSCEM) has been published (Lapchak, Exp Neurol. 2007 205(2):407-13). In the manuscript, it is shown that CGA has a therapeutic window of 60 minutes in the RSCEM. FIG. 2 presents the therapeutic window data.
Using the RSCEM assay described above for CGA, the effects of Fisetin (50 mg/kg) on behavioral outcome measured 24 hours following embolization is tested.

[3] = tested on: Nrf2; assay: Nrf2 induction, SDS-PAGE and Western blotting of nuclear extracts; assay type: cell-based; settings: cells treated 1, 2 and 4 hr at most protective concentration
Description: SDS-PAGE and immunoblotting. For immunoblotting of Nrf2, nuclear extracts were prepared as described (Schreiber, et al., Nucleic Acids Res. (1989) 17 (15), 6419) from untreated cells and cells treated with the Fisetin derivatives for 1, 2 and 4 hr. Fisetin was used as a positive control. […] Protein concentrations were determined using the BCA protein assay (Pierce). Equal amounts of protein were solubilized in 2.5× SDS-sample buffer, separated on 10% SDS-polyacrylamide gels and transferred to nitrocellulose. Equal loading and transfer of the samples was confirmed by staining the nitrocellulose with Ponceau-S. Transfers were blocked for 1 hr at room temperature with 5% nonfat milk in TBS/0.1% Tween 20 and then incubated overnight at 4° C. in the primary antibody diluted in 5% BSA in TBS/0.05% Tween 20. The primary antibodies used were: anti-Nrf2 (#SC13032; 1/1000) from Santa Cruz Biotechnology (Santa Cruz, Calif.) and anti-β-actin (#5125; 1/20,000) from Cell Signaling (Beverly, Mass.). The transfers were rinsed with TB S/0.05% Tween 20 and incubated for 1 hr at room temperature in horseradish peroxidase-goat anti-rabbit or goat anti-mouse (Biorad, Hercules, Calif.) diluted 1/5000 in 5% nonfat milk in TBS/0.1% Tween 20. The immunoblots were developed with the Super Signal reagent (Pierce, Rockford, Ill.).
The transcription factor Nrf2 plays a key role in regulating GSH metabolism in many different cell types (Lewerenz, et al., Antioxidant & Redox Signaling. (2011) 14, 1449-1465). We have shown that Fisetin can induce Nrf2 and this correlates with its ability to enhance GSH levels (Maher, P. et al., Genes. Nutr. (2009) Sep. 10). To determine if the derivatives which can maintain GSH levels do so by increasing Nrf2 we looked at Nrf2 levels in the nuclei of derivative-treated cells using Fisetin as a positive control (Table 4). […] This was particularly true for the derivatives based on the quinoline scaffold where none of them increased Nrf2 despite being very effective at maintaining GSH levels.
The ability of the derivatives that maintain GSH levels to induce the transcription factor Nrf2 was assayed by SDS-PAGE and Western blotting of nuclear extracts of untreated and derivative-treated cells. Fisetin treatment was used as a positive control.

[4] = tested on: N9 microglial cells; assay: anti-inflammatory assay, LPS-induced microglial activation (NO release); assay type: cell-based, mouse; settings: bacterial lipopolysaccharide, derivative 1-10 μM, 24 hr
Description: Anti-inflammatory assay. Mouse N9 microglial cells plated in DME with 7.5% DFCS were treated with 10 μg/ml bacterial lipopolysaccharide (Sigma) alone or in the presence of the Fisetin derivatives (1-10 μM) or Fisetin (10 μM) as a positive control. After 24 hr the medium was removed, spun briefly to remove floating cells and 100 μl assayed for NO using 100 μl of the Griess Reagent (Sigma) in a 96 well plate. After incubation for 10 min at room temperature the absorbance at 550 nm was read on a microplate reader.
Three secondary screens allowed assessment of three key activities of Fisetin that are highly relevant to stroke, as well as other neurological disorders: maintenance of glutathione (GSH), the major endogenous cellular antioxidant, inhibition of LPS-induced microglial activation, an indicator of anti-inflammatory activity and PC12 cell differentiation, a measure of neurotrophic activity. All of these activities are relevant to the nerve cell loss seen in stroke (Gelderblom, et al., Stroke. 2009, 40 (5), 1849-1857; Pandya, et al., Cent. Nerv. Syst. Agents. Med. Chem. (2011) Apr. 27; Lewerenz, et al., J. Neurochem. (2010) 113 (2), 502-504). […] To assess GSH maintenance, total intracellular GSH levels after a 24 hr treatment with the compound both in the absence and presence of glutamate, an inducer of GSH loss and oxidative stress (Tan, et al., Curr. Top. Med. Chem. (2001) 1, 497-506; Maher, et al., Free Radical Research. (2006) 40 (10), 1105-1111) was measured Inhibition of LPS-induced microglial activation was determined by treating N9 mouse microglial cells with LPS alone and in the presence of the compounds and assaying NO release into the medium 24 hr later (Zheng, et al., Int. Immunopharmacol. (2008) 8, (3), 484-494). PC12 cell differentiation was determined by treating PC12 cells with the compounds and looking at neurite outgrowth after 24 hr. In all cases, Fisetin was used as a positive control (Sagara, et al., J. Neurochem. (2004) 90, 1144-1155).
The roles of the four different hydroxyl groups in the activity of Fisetin were studied. […] Cell viability was determined after 24 hr by the MTT assay. The ability to maintain GSH (GSH) was determined by treating HT22 cells with different doses of each derivative (1-10 μM) in the presence of 5 mM glutamate. After 24 hr cell extracts were prepared and analyzed for total GSH. Fisetin (10 μM) was used as a positive control. The ability to induce PC12 cell differentiation (PC12 diff'n) was determined by treating PC12 cells in N2 medium with different doses of each derivative (1-10 μM) for 24 hr. Differentiation was assessed by visual inspection with Fisetin (10 μM) as a positive control. Anti-inflammatory activity (microglia) was assessed in N9 microglial cells treated with bacterial lipopolysaccharide alone or in the presence different doses of each derivative (1-10 μM) for 24 hr. Fisetin was used as a positive control. TEAC values, a measure of direct antioxidant activity, were determined using the ABTS+ decolorization assay.

[5] = tested on: PC12 cells; assay: glucose starvation assay; assay type: cell-based; settings: PC12 cells starved for glucose, MTT 24 hr
Description: FIG. 5C—PC12 cells were glucose-deprived then were incubates in the absence or presence of Baicalein. Cell viability was determined 24 hr later using the MTT assay. […] When these cells are starved for glucose, there is approximately 70% maximal survival in the presence of NGF. Baicalein promotes over 80% survival (FIG. 5C).

Compound: O=C(/C=C/c1ccc(O)c(O)c1)O[C@@H]1C[C@](O)(C(=O)O)C[C@@H](O)[C@H]1O [Chlorogenic Acid, 1,3,4,5-tetrahydroxy-cyclohexanecarboxylic acid 3-(3,4-dihydroxycinnamate)]
- therapeutic window [1]: 60 min
- behavior when administered 1 hour following embolization ([2]; 1 hour following embolization): effective at improving behavior
- behavior when administered 3 hours following embolization ([2]; 3 hours following embolization): neither improve behavior
- therapeutic window ([2]; time post-embolization, FIG. 2): 60 min

Compound: Cc1cc2oc(-c3ccc(N(C)C)cc3)c(O)c(=O)c2cc1C [CMS-117, 2-(4-(dimethylamino)phenyl)-3-hydroxy-6,7-dimethyl-4H-chromen-4-one]
- Nrf2 (induction of transcription factor Nrf2) [3]: No
- microglia (anti-inflammatory activity) [4]: 11%

Compound: Cc1cc2oc(-c3ccc(N4CCCC4)cc3)c(O)c(=O)c2cc1C [CMS-122, 3-hydroxy-6,7-dimethyl-2-(4-(pyrrolidin-1-yl)phenyl)-4H-chromen-4-one]
- Nrf2 (induction of transcription factor Nrf2) [3]: No
- microglia (anti-inflammatory activity) [4]: 0%

Compound: NGF: NGF, comparator giving approximately 70% maximal survival of glucose-starved PC12 cells
- survival [5]: approximately 70%

Compound: CN(C)c1ccc(-c2oc3c(ccc4ccccc43)c(=O)c2O)cc1 [CMS-118, 2-(4-(dimethylamino)phenyl)-3-hydroxy-4H-benzo[h]chromen-4-one]
- Nrf2 (induction of transcription factor Nrf2) [3]: No
- microglia (anti-inflammatory activity) [4]: 0%

Compound: Cc1cc(O)c(C(=O)/C=C/c2ccc(O)c(O)c2)cc1C [CMS-011, (E)-3-(3,4-dihydroxyphenyl)-1-(2-hydroxy-4,5-dimethylphenyl)prop-2-en-1-one]
- Nrf2 (induction of transcription factor Nrf2) [3]: Yes
- microglia (anti-inflammatory activity) [4]: 94%

Compound: O=C(/C=C/c1ccc(O)c(O)c1)c1ccc2ccccc2c1O [CMS-034, (E)-3-(3,4-dihydroxyphenyl)-1-(1-hydroxynaphthalen-2-yl)prop-2-en-1-one]
- Nrf2 (induction of transcription factor Nrf2) [3]: Yes
- microglia (anti-inflammatory activity) [4]: 75%
